A short description of data set [1]: Amyloid formation in presence of anionic large unilamellar vesicles. In kind it is physicochemical. The note with it: LUV's 25% POPS / 75% POPC, final concentration 400 μM.
The test system of another data set is rat INS-1/832-13 β-cells. Nature of the data set: Alamar Blue β-cell viability. Particulars: 30 μM peptide. For orientation: Alamar Blue is a resazurin reagent that responds to reducing activity.
The target in a further data set is hAMY2(a) receptor (Homo sapiens, UniProt O60895+P30988). Nature of the data set: cAMP production. In kind it is cell-based. (In general: Cyclic AMP is a second messenger, typically raised through Gs and lowered through Gi signalling.)
hAMY2(a) receptor, sequence (O60895 43-175 partner, one chain of several): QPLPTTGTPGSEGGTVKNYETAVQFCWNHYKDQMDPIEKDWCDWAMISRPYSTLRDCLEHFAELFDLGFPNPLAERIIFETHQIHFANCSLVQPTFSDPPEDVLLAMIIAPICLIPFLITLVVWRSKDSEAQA
The nature of data set [2]: Thioflavin-T fluorescence amyloid formation kinetics and TEM in PBS. The note with it: PBS (10 mM phosphate 140 mM KCl) pH 7.4. The data set is classed as physicochemical.
The next data set addresses T1, hCT(a) receptor (Homo sapiens, UniProt P30988).
T1 sequence (P30988 25-474): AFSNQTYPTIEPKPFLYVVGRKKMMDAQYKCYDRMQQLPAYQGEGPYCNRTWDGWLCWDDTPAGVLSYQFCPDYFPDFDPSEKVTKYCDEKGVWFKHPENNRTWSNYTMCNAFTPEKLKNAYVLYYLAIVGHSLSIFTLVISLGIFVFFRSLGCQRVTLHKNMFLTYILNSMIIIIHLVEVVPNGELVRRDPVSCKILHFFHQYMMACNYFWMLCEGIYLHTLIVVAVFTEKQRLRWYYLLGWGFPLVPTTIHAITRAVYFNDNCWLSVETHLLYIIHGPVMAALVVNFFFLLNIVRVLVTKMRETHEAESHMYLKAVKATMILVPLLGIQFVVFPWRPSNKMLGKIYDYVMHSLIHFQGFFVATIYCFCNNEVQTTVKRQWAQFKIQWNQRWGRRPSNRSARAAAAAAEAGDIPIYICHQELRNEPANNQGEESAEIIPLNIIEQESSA
Nature of the data set: cAMP production. In kind it is cell-based.

A further data set concerns the target T2, hAMY3(a) receptor (Homo sapiens, UniProt O60896+P30988).
T2 sequence (P30988 25-474): T1 sequence (P30988 25-474)
T2 sequence (O60896 24-148 partner): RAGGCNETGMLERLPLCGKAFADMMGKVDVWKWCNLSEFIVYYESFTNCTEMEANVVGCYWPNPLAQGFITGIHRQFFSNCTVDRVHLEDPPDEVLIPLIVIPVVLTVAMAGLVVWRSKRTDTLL
Nature of the data set: cAMP production. In kind it is cell-based.

Data set [3] relates to hCT(a), hAMY1(a), hAMY2(a), hAMY3(a) receptors. Nature of the data set: cAMP production, overall statement for the four amylin-responsive receptors. The data set is classed as cell-based, human. Particulars: stimulation of cAMP production at hCT(a).
The target of another data set is hAMY1(a) receptor (Homo sapiens, UniProt O60894+P30988). Nature of the data set: cAMP production. The data set is classed as cell-based.
hAMY1(a) receptor, sequence (O60894 27-148 partner, one chain of several): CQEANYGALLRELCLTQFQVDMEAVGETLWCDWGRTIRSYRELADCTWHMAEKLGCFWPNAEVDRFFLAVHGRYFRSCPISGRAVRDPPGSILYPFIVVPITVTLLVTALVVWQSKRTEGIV
Data set [4] can be described thus: Thioflavin-T fluorescence amyloid formation kinetics and TEM in Tris buffer.

These results are taken from article PMC7656518 (ACS chemical biology, 2018).

Positions of bridges follow the written chain, without caps; N, C: chain ends. Residues, ends and D or L forms follow the SMILES beside them.

In general, Emax refers to the size of the effect at its maximum, as opposed to the concentration needed. By EC50 is commonly meant the concentration giving half of the maximal effect. For `CC[C@H](C)[C@H](NC(=O)[C@H](C)NC(=O)CNC(=O)[C@H](CC(C)C)NC(=O)[C@H](CCCCN)NC(=O)[C@H](CC(N)=O)NC(=O)[C@H](CO)NC(=O)[C@H](CO)NC(=O)[C@@H]1CCCN1C(=O)[C@H](C)NC(=O)[C@H](CC(C)C)NC(=O)[C@H](Cc1ccccc1)NC(=O)[C@H](CC(N)=O)NC(=O)[C@H](C)NC(=O)[C@H](CC(C)C)NC(=O)[C@H](CCCNC(=N)N)NC(=O)[C@H](CCC(N)=O)NC(=O)[C@@H](NC(=O)[C@H](CCC(=O)O)NC(=O)[C@@H]1CSSC[C@H](NC(=O)[C@@H](N)CCCCN)C(=O)NCC(=O)N[C@@H]([C@@H](C)O)C(=O)N[C@@H](C)C(=O)N[C@@H]([C@@H](C)O)C(=O)N1)[C@@H](C)O)C(=O)N[C@@H](Cc1ccccc1)C(=O)N[C@@H](CO)C(=O)N1CCC[C@H]1C(=O)N[C@H](C(=O)N[C@@H](CCCCN)C(=O)N[C@@H](CCSC)C(=O)NCC(=O)N[C@@H](CO)C(=O)N[C@@H](CC(N)=O)C(=O)N[C@H](C(=O)N[C@@H](Cc1ccc(O)cc1)C(N)=O)[C@@H](C)O)[C@@H](C)O` [b-amylin] (H-KCGTATCETQRLANFLAPSSNKLGAIFSPTKMGSNTY-NH2; disulfide 2-7; N-terminus assumed), the “amyloid formation in presence of LUV's” value in data set [1] is recorded as “no amyloid formation was detected”. The “toxicity (in words)” value in the data set with rat INS-1/832-13 β-cells (24 h incubation) is given as “did not exhibit any toxicity”; with rat INS-1/832-13 β-cells (84 h incubation), “not toxic”. Besides, the Emax was found to be 73.9 ± 4.27% on hAMY2(a) receptor (COS-7), 62.9 ± 8.25% at hCT(a) receptor (COS-7), 62.4 ± 9.31% at hAMY3(a) receptor (COS-7) and 83.1 ± 10.6% at hAMY1(a) receptor (COS-7). The EC50 on hAMY2(a) receptor (SEM) was 1170 nM; on hCT(a) receptor (SEM), 1550 nM; at hAMY3(a) receptor (SEM) it was 1350 nM; on hAMY1(a) receptor (SEM), 912 nM. In addition, the Fold-change on hAMY2(a) receptor (potency of b-amylin relative to h-amylin at hAMY2(a)) is given as more than −600; on hCT(a) receptor (potency of b-amylin relative to h-amylin at hCT(a)), more than −400; at hAMY3(a) receptor (potency of b-amylin relative to h-amylin at hAMY3(a)) it was more than −2000; on hAMY1(a) receptor (potency of b-amylin relative to h-amylin at hAMY1(a)), more than −5000. Moreover, the “amyloid fibrils by TEM” value in data set [2] is reported as “no amyloid fibrils were detected”. In addition, the “increase in thioflavin-T fluorescence signal” value in data set [2] (7 days of incubation) is “no significant increase in thioflavin-T fluorescence signal was observed”; in data set [4] (16 μM peptide, 32 μM thioflavin-T, pH 7.4, 25°C, 20 mM Tris, 6 days of incubation), “no increase in thioflavin-T fluorescence signal was observed”. Also, the agonist character result is “partial agonist” on hCT(a) receptor (hCT(a), cAMP production) and “full agonist” at hAMY1(a) receptor (hAMY1(a), cAMP production). In addition, the “fold less potent than h-amylin” value in data set [3] was “at least 300 fold”. Moreover, the “amyloid formation at a range of peptide concentrations” value in data set [4] (20 mM Tris pH 7.4, highest concentration examined 64 μM) was “no amyloid was detected”.
